Reference: ChEMBL document CHEMBL1152318, “Antitumor psoropermum xanthones and sarcomelicope acridones: privileged structures implied in DNA alkylation” (J Nat Prod, 2009)

Legend:
[1] = test system: L1210; experiment: Ratio of IC50 for human KB-3-1 cells to IC50 for mouse L1210 cells; type: functional
[2] = test system: L1210; experiment: Ratio of acronycine IC50 to compound IC50 for mouse L1210 cells; type: functional
[3] = test system: MC-38; experiment: Antitumor activity against […] cells […] in B6D2F1 mouse assessed as tumor growth at 12.5 mg/kg, ip relative to control; type: functional; details: route intraperitoneal
[4] = test system: P388; experiment: Antitumor activity against mouse P388 cells xenografted in B6D2F1 mouse assessed as median survival at 25 mg/kg, ip relative to control; type: functional; details: route intraperitoneal
[5] = Cytotoxicity against human KB-3-1 cells; type: functional, cell-based
[6] = test system: L1210; experiment: Cytotoxicity against mouse L1210 cells; type: functional, cell-based
[7] = test system: P388; experiment: In vivo cytotoxicity against mouse P388 cells at 8 mg/kg relative to control; type: functional
[8] = Cytotoxicity against human 9KB cells; type: functional, cell-based
[9] = test system: P388; experiment: Antitumor activity against mouse P388 cells xenografted in B6D2F1 mouse assessed as median survival at 50 mg/kg, ip relative to control; type: functional; details: route intraperitoneal
[10] = test system: P388; experiment: Antitumor activity against mouse P388 cells xenografted in B6D2F1 mouse assessed as median survival at 12.5 mg/kg, ip relative to control; type: functional; details: route intraperitoneal
[11] = test system: MC-38; experiment: Antitumor activity against […] cells […] in B6D2F1 mouse assessed as inhibition of tumor growth at 6.25 mg/kg, ip; type: functional; details: MC-38, ip, route intraperitoneal, read-out: TGI
[12] = test system: NCI-H460; experiment: Antitumor activity against human NCI-H460 cells xenografted in BALB/c nude mouse administered twice 6.25 mg/kg, iv relative to control; type: functional
[13] = test system: IGROV-1; experiment: Antitumor activity against human IGROV1 cells xenografted in BALB/c nude mouse assessed as increase in survival administered twice by intravenous route; type: functional, cell-based
[14] = test system: A549; experiment: Antitumor activity against human A549 cells xenografted in BALB/c nude mouse assessed as increase in survival administered twice by intravenous route; type: functional, cell-based
[15] = test system: IGROV-1; experiment: Antitumor activity against human IGROV1 cells xenografted in BALB/c nude mouse administered twice 6.25 mg/kg, iv relative to control; type: functional
[16] = test system: NCI-H460; experiment: Antitumor activity against human NCI-H460 cells xenografted in BALB/c nude mouse assessed as increase in survival administered twice by intravenous route; type: functional, cell-based
[17] = test system: MC-38; experiment: Antitumor activity against […] cells […] in B6D2F1 mouse assessed as tumor growth at 6.25 mg/kg, ip relative to control; type: functional; details: route intraperitoneal
[18] = test system: OVCAR-3; experiment: Antitumor activity against human OVCAR-3 cells xenografted in BALB/c nude mouse assessed as increase in survival administered twice by intravenous route; type: functional, cell-based
[19] = test system: MCF7; experiment: Cytotoxicity against human MCF7 cells by MTT assay; type: functional, cell-based
[20] = test system: HeLa; experiment: Cytotoxicity against human HeLa cells by MTT assay; type: functional, cell-based
[21] = test system: A-431; experiment: Cytotoxicity against human A431 cells by MTT assay; type: functional, cell-based
[22] = test system: MC-38; experiment: Antitumor activity against […] cells […] in B6D2F1 mouse assessed as tumor growth at 200 mg/kg, ip relative to control; type: functional; details: route intraperitoneal
[23] = test system: P388; experiment: Antitumor activity against mouse P388 cells xenografted in B6D2F1 mouse assessed as median survival at 200 mg/kg, ip relative to control; type: functional; details: route intraperitoneal
[24] = test system: HCT-116; experiment: Cytotoxicity against human HCT116 cells; type: functional, cell-based
[25] = test system: SMMC-7721; experiment: Cytotoxicity against human SMMC7721 cells; type: functional, cell-based
[26] = test system: SGC-7901; experiment: Cytotoxicity against human SGC7901 cells; type: functional, cell-based
[27] = Homo sapiens, HeLa, read-out: IC50
[28] = Homo sapiens, A-431, read-out: IC50

For `COc1cc2c(c3c1c(=O)c1c4ccccc4ccc1n3C)[C@@H](OC(=O)CC(C)C)[C@@H](OC(=O)CC(C)C)C(C)(C)O2` (racemic), the “Ratio IC50” value [1] was 3.

For `COc1cc2c(c3c1c(=O)c1cc4ccccc4cc1n3C)C=CC(C)(C)O2` [BENZO[B]ACRONYCINE], the “Ratio IC50” value [2] was 4.

For `COc1cc2c(c3c1c(=O)c1ccccc1n3C)[C@@H](OC(C)=O)[C@@H](OC(C)=O)C(C)(C)O2` (racemic), the “Ratio IC50” value [2] was 5, the T/C [3] was 0% and the T/C [4] was 289%.

In the case of `COc1cc2c(c3c1c(=O)c1cc4ccccc4cc1n3C)C[C@H]([C@@]1(C)CO1)O2`, the IC50 [5] is reported as 10 nM and the IC50 [6] is reported as 10 nM.

`COc1cc2c(c3oc4c(O)cccc4c(=O)c13)C[C@H]([C@@]1(C)CO1)O2` [PSOROSPERMIN] gave a T/C [7] of 158% and an IC50 [8] of 290 nM.

Molecule `COc1cc2c(c3c1c(=O)c1cc4ccccc4cc1n3C)C[C@H]([C@]1(C)CO1)O2` has an IC50 [5] of 10 nM and an IC50 [6] of 10 nM.

With `COc1cc2c(c3c1c(=O)c1cc4ccccc4cc1n3C)[C@@H](OC(C)=O)[C@@H](OC(=O)CC(C)C)C(C)(C)O2` (racemic) the “Ratio IC50” value [1] was 3.

With `COc1cc2c(c3c1c(=O)c1ccc4ccccc4c1n3C)C=CC(C)(C)O2` [BENZO[C]ACRONYCINE] the IC50 [6] was 12100 nM.

In the case of `COc1cc2c(c3c1c(=O)c1ccccc1n3C)[C@@H](OC(C)=O)[C@@H](OC(=O)c1ccccc1)C(C)(C)O2` (racemic), the T/C [9] is reported as 201%, the “Ratio IC50” value [2] is reported as 5 and the T/C [3] is reported as 13%.

`COc1cc2c(c3c1c(=O)c1cc4ccccc4cc1n3C)[C@@H](OC(C)=O)[C@@H](OC(C)=O)C(C)(C)O2` (racemic) gave a T/C [10] of 327%, an inhibition in vivo at 6.25 mg/kg [11] of 96% and a T/C [12] of 162%. For the same molecule, the Activity [13] was “Dose-dependent effect”, the Activity [14] was “Dose-dependent effect” and the T/C [15] was 193%. The Activity [16] was “Dose-dependent effect”, the T/C [17] was 4% and the “Ratio IC50” value [1] was 3. For the same molecule, the Activity [18] was “Dose-dependent effect”.

With `COc1cc2c(c3c1c(=O)c1cc4ccccc4cc1n3C)[C@@H](OC(=O)CC(C)C)[C@@H](OC(=O)CC(C)C)C(C)(C)O2` (racemic) the “Ratio IC50” value [1] was 3.

In the case of `CCC(=O)O[C@@H]1c2c(cc(OC)c3c(=O)c4c5ccccc5ccc4n(C)c23)OC(C)(C)[C@@H]1OC(=O)CC` (racemic), the “Ratio IC50” value [1] is reported as 3.

With `COc1cc2c(c3c1c(=O)c1ccccc1n3C)[C@@H](OC(C)=O)[C@H](OC(C)=O)C(C)(C)O2` (racemic) the T/C [10] was 181%.

In the case of `COc1cc2c(c3c1c(=O)c1c4ccccc4ccc1n3C)[C@@H](OC(C)=O)[C@@H](OC(C)=O)C(C)(C)O2` (racemic), the “Ratio IC50” value [1] is reported as 3.

With `C=C(C)[C@H]1Cc2c(cc(O)c3c(=O)c4ccccc4n(C)c23)O1` [RUTACRIDONE] the IC50 [19] was 3000 nM, the IC50 [20, 27] was 3000 nM and the IC50 [21, 28] was 3000 nM.

For `COc1cc2c(c3c1c(=O)c1c4ccccc4ccc1n3C)C=CC(C)(C)O2` [BENZO[A]ACRONYCINE], the “Ratio IC50” value [2] was 4.

In the case of `COc1cc2c(c3c1c(=O)c1ccccc1n3C)C=CC(C)(C)O2` [ACRONINE], the T/C [22] is reported as 4% and the T/C [23] is reported as 125%.

With `COc1cc2c(c3c1c(=O)c1c4ccccc4ccc1n3C)[C@@H](OC(C)=O)[C@@H](OC(=O)CC(C)C)C(C)(C)O2` (racemic) the “Ratio IC50” value [1] was 3.

In the case of `Cn1c2ccccc2c(=O)c2c(O)cc3c(c21)CC(C(O)(CO)CO)O3` (centres undefined) [GRAVACRIDONTRIOL], the IC50 ([20]; hela) is reported as “Active” and the IC50 ([21]; a-431) is reported as “Active”.

In the case of `CCC(=O)O[C@@H]1c2c(cc(OC)c3c(=O)c4cc5ccccc5cc4n(C)c23)OC(C)(C)[C@@H]1OC(=O)CC` (racemic), the “Ratio IC50” value [1] is reported as 3.

Molecule `Cn1c2ccccc2c(=O)c2c(O)cc3c(c21)CC(C(C)(O)CO)O3` (centres undefined) [GRAVACRIDONDIOL] has an IC50 [19] of 3000 nM, an IC50 [20, 27] of 3000 nM and an IC50 [21, 28] of 3000 nM.

For `COCC(C)(O)C1Cc2c(cc(O)c3c(=O)c4ccccc4n(C)c23)O1` (centres undefined) [GRAVACRIDONDIOLMONOMETHYL ETHER], the IC50 [19] was 3000 nM, the IC50 [20, 27] was 3000 nM and the IC50 [21, 28] was 3000 nM.

Molecule `C=CC(C)(C)c1c(O)cc(O)c2c(=O)c3c(CC=C(C)C)c(O)c(O)cc3oc12` [CUDRATRICUSXANTHONE A] has an IC50 [24] of 4000 nM, an IC50 [25] of 4000 nM and an IC50 [26] of 4000 nM.
